Calls of active or inactive are those of the source. No cut-off for these calls is given here.
Columns and labels:
[1] = target: Cytochrome P450 2C19 (Homo sapiens, UniProt P33261); assay: Inhibition of human CYP2C19 at 4.9 uM; format: ADME
[2] = target: T1, Bromodomain-containing protein 3 (Homo sapiens, UniProt Q15059); assay: Binding affinity to human partial length BRD3 (BD1) (P24 to E144 residues) expressed in bacterial expression system by BROMOscan assay
[3] = Volume of distribution at steady state in CD-1 mouse at 2 mg/kg, iv; format: ADME, organism-based; conditions: in vivo, read-out: Vdss
[4] = test system: Mus musculus; assay: (§1) Antiinflammatory activity in collagen/complete freund's adjuvant-induced arthritis DBA/1 mouse model assessed as VEGF level in rear right paw at 50 mg/kg, po administered via gavage starting from day 21 to day 41 post collagen/CFA challenge and measured on day 42 measured per mg protein (reference value: 0.98 pg); format: functional; conditions: time 21 day
[5] = target: T2, Bromodomain testis-specific protein (Homo sapiens, UniProt Q58F21); assay: Binding affinity to human partial length BRDT (BD1) (N21 to E137 residues) expressed in bacterial expression system by BROMOscan assay
[6] = Stability in mouse liver microsomes assessed as half life; format: ADME, Microsome
[7] = Drug uptake in tumor tissue of CB17 SCID mouse xenografted with human Kasumi-1 cells at 10 mg/kg, po QD for 25 days and measured after 24 hrs post last dose; format: ADME, organism-based, Neoplasm; conditions: time 25 day, read-out: Drug uptake
[8] = test system: Mus musculus; assay: Antiarthritic activity in collagen/complete freund's adjuvant-induced arthritis DBA/1 mouse model assessed as paw thickness at 50 mg/kg, po administered via gavage starting from day 21 to day 41 post collagen/CFA challenge and measured on day 21 by caliper analysis (reference value: 2.48 millimeter); format: functional; conditions: time 21 day
[9] = target: CYP3A4 (Homo sapiens, UniProt P08684); assay: Inhibition of human CYP3A4 at 10 uM using midazolam as substrate relative to control; format: ADME; conditions: probe midazolam
CYP3A4, sequence (P08684 whole entry): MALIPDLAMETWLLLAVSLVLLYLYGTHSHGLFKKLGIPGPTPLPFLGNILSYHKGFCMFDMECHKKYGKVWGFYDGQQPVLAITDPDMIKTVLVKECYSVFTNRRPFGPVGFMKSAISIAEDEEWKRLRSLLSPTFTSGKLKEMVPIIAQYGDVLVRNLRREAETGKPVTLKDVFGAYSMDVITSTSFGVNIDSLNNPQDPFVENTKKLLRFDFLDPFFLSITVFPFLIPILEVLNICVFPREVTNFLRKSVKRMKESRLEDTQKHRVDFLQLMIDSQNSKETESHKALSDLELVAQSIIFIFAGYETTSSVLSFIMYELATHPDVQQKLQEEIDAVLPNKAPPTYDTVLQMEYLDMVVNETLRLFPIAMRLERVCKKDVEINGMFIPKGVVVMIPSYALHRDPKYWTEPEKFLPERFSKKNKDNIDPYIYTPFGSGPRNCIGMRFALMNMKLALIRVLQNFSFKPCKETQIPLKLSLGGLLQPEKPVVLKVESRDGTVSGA

[10] = test system: Mus musculus; assay: as §1, with “IL-1 beta” for “VEGF”, “3.15” for “0.98”; format: functional; conditions: time 21 day
[11] = test system: Mus musculus; assay: as §1, with “TNF-alpha” for “VEGF”, “0.88” for “0.98”; format: functional; conditions: time 21 day
[12] = Drug metabolism in rat assessed as oxidised metabolite formation by MetID study analysis; format: ADME
[13] = target: T3, Bromodomain-containing protein 2 (Homo sapiens, UniProt P25440); assay: Binding affinity to human partial length BRD2 (BD2) (E348 to D455 residues) expressed in bacterial expression system by BROMOscan assay
T3 sequence (P25440 whole entry, the tested form may be a part): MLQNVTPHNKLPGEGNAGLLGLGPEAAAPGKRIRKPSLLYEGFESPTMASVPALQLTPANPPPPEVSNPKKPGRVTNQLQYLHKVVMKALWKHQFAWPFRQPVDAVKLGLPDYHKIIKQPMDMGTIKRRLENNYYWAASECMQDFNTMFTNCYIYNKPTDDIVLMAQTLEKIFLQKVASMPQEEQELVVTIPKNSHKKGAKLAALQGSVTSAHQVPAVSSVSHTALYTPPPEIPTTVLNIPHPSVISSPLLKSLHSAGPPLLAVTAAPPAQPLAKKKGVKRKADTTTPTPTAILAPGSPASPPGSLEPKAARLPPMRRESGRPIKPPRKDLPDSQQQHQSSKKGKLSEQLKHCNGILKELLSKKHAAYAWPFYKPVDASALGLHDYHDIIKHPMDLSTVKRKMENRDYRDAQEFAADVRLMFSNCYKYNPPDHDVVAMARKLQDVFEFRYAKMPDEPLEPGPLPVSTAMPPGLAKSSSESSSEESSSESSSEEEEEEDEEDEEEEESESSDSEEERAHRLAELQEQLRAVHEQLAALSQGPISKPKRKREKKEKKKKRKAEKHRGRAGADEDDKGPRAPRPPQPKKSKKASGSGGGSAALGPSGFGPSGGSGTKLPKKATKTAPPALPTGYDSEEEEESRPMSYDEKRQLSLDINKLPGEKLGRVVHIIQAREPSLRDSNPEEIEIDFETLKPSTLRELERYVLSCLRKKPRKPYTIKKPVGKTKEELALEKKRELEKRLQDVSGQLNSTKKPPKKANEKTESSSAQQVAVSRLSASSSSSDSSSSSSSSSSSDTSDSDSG

[14] = test system: Kasumi 1; assay: Antitumor activity against human Kasumi-1 cells xenografted in CB17 SCID mouse assessed as tumor weight at 10 mg/kg, po administered for 25 days (reference value: 2.57 +/- 0.27 g); format: functional; conditions: time 25 day
[15] = target: T2, Bromodomain testis-specific protein; assay: Binding affinity to human partial length BRDT (BD2) (K250 to E382 residues) expressed in bacterial expression system by BROMOscan assay
[16] = target: Bromodomain-containing protein 4 (Homo sapiens, UniProt O60885); assay: Inhibition of human full-length recombinant N-terminal His-tagged BRD4 (2 to 1362 residues) expressed in Sf9 cells using histone H4 peptide containing acetylated lysine residues as substrate preincubated with enzyme for 30 mins followed by incubation with substrate for 30 mins by Alphascreen assay […]
[17] = test system: Mus musculus; assay: Antiarthritic activity in collagen/complete freund's adjuvant-induced arthritis DBA/1 mouse model assessed as reduction in inflammatory symptoms at 50 mg/kg, po administered via gavage once daily starting from day 21 to day 41 post collagen/CFA challenge and measured from day 13 to 42; format: functional, organism-based; conditions: time 21.0 day
[18] = Toxicity in CD1 mouse assessed as mortality at 50 to 100 mg/kg, po administered once daily for 5 days and observed for 5 days after last dose; format: organism-based; conditions: in vivo, 120 h, dose 50-100 mg/kg, time 5 day
[19] = target: T1, Bromodomain-containing protein 3; assay: Binding affinity to human partial length BRD3 (BD2) (G306 to P416 residues) expressed in bacterial expression system by BROMOscan assay
[20] = target: T3, Bromodomain-containing protein 2; assay: Binding affinity to human partial length BRD2 (BD1,2) (K71 to D455 residues) expressed in bacterial expression system by BROMOscan assay
[21] = test system: Mus musculus; assay: as §1, with “M-CSF” for “VEGF”, “3.49” for “0.98”; format: functional; conditions: time 21 day
[22] = target: T1, Bromodomain-containing protein 3; assay: Binding affinity to human partial length BRD3 (BD1,2) (P24 to P416 residues) expressed in bacterial expression system by BROMOscan assay
[23] = target: CYP2D6 (Homo sapiens, UniProt P10635); assay: Inhibition of human CYP2D6 at 10 uM relative to control; format: ADME
CYP2D6, sequence (P10635 whole entry): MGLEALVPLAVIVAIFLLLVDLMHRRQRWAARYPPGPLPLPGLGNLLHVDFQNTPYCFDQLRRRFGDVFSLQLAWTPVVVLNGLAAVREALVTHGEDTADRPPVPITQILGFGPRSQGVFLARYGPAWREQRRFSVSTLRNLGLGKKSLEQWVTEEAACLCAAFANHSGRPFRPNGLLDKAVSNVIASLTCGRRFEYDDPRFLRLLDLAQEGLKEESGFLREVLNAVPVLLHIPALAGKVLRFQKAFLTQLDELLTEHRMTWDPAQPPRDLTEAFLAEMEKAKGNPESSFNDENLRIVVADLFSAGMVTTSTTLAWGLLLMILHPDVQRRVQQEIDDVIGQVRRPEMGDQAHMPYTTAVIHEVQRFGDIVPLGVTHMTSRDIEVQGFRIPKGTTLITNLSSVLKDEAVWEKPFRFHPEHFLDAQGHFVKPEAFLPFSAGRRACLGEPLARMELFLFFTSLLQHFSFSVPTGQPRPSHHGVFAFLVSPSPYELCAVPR

[24] = test system: Mus musculus; assay: Antiarthritic activity in collagen/complete freund's adjuvant-induced arthritis DBA/1 mouse model assessed as reduction in histological damage of hind paw at 50 mg/kg, po administered via gavage starting from day 21 to day 41 post collagen/CFA challenge and measured on day 42 by hematoxylin-eosin staining based assay; format: functional, organism-based; conditions: time 21.0 day
[25] = test system: Kasumi 1; assay: Antitumor activity against human Kasumi-1 cells xenografted in CB17 SCID mouse assessed as tumor volume at 10 mg/kg, po QD for 29 days (reference value: 1734 +/- 220 mm3); format: functional; conditions: time 29 day
[26] = target: T4, CYP1A2 (Homo sapiens, UniProt P05177); assay: Inhibition of human CYP1A2 at 10 uM relative to control; format: ADME
T4 sequence (P05177 whole entry): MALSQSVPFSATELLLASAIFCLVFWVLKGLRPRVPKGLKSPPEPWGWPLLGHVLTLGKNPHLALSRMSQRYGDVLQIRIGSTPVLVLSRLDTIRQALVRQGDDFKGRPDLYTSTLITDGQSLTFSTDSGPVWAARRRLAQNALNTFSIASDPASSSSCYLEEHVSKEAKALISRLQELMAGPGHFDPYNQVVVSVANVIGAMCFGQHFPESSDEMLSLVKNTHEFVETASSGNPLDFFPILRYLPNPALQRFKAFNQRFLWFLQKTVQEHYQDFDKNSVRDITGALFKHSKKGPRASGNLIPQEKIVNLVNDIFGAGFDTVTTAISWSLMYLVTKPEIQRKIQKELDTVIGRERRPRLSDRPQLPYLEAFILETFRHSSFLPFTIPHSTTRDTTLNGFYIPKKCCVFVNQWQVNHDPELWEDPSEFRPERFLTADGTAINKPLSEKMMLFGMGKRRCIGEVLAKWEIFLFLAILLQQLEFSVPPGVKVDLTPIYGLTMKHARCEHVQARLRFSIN

[27] = AUC(0 to infinity) in CD-1 mouse at 2 mg/kg, iv; format: ADME, organism-based; parameters: time infinity, route intravenous, dose 2 mg/kg; conditions: mouse, in vivo
[28] = test system: Mus musculus; assay: as §1, with “IL-2” for “VEGF”, “0.2” for “0.98”; format: functional; conditions: time 21 day
[29] = Half life in CD-1 mouse at 10 mg/kg, po; format: ADME, organism-based; conditions: in vivo
[30] = test system: Kasumi 1; assay: Antitumor activity against human Kasumi-1 cells xenografted in CB17 SCID mouse assessed as tumor volume at 40 mg/kg, po QD for 25 days (reference value: 2189 +/- 604 mm3); format: functional; conditions: time 25 day
[31] = Apparent permeability across basolateral to apical side in human Caco2 cells; format: ADME, cell-based; conditions: caco-2

T1 sequence (Q15059 whole entry, the tested form may be a part): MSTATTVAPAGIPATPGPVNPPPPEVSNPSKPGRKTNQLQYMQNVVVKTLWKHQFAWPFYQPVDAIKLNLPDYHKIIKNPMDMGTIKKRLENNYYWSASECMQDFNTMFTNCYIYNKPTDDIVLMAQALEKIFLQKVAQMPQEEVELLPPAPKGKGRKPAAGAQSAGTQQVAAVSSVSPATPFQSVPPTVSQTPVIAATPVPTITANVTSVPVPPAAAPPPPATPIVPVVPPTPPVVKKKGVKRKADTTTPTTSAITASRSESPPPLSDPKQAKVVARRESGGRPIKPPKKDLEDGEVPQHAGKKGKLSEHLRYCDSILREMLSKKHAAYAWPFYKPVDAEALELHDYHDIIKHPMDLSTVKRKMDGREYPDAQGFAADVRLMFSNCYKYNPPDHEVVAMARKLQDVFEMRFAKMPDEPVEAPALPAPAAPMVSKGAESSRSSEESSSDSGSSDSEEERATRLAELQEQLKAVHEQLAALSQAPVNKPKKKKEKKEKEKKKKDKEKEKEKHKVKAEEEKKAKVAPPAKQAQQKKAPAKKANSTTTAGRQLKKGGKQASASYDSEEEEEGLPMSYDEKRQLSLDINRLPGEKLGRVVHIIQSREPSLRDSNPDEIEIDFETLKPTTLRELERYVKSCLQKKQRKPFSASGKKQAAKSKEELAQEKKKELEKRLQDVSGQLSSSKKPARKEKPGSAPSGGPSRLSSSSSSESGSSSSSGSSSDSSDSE
Cytochrome P450 2C19, sequence (P33261 whole entry, the tested form may be a part): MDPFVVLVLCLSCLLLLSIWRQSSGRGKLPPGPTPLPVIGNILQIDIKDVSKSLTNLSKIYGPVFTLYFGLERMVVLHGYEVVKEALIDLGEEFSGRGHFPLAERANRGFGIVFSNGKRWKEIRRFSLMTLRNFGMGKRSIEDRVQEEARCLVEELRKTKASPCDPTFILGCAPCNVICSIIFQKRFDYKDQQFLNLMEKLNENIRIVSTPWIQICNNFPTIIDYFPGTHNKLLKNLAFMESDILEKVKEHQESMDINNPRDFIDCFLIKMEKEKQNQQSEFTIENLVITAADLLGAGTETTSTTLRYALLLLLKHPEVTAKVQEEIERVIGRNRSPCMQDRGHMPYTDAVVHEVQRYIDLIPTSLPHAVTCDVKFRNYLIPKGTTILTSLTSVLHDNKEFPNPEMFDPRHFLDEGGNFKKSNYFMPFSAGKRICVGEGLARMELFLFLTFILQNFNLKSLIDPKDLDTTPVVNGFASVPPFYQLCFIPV

Cc1noc(C)c1-c1ccc2nc(-c3cnn(CC(C)(C)O)c3)nc(N3CCOC[C@@H]3c3ccccc3)c2c1
inhibition (INH) [1]: Active | Kd [2]: 11 nM | Vd [3]: 1.04 L/kg | Activity [4]: 1.6 pg | Kd [5]: 76 nM | t1/2 [6]: 0.367 h | concentration at 600 h [7]: 56 ng/g | Activity [8]: 1.83 mm | inhibition at 10 µM [9]: < 50% | Activity [10]: 2.06 pg | Activity [11]: 0.46 pg | Drug metabolism [12]: Metabolite_Detected | Kd [13]: 200 nM | Activity [14]: 1.51 g | Kd [15]: 160 nM | IC50 [16]: 14 nM | Activity [17]: Active | Activity [18]: Non-Toxic | Kd [19]: 44 nM | Kd [20]: 87 nM | Activity [21]: 2.89 pg | Kd [22]: 29 nM | inhibition at 10 µM [23]: < 50% | Activity [24]: Active | Activity [25]: 1036 mm3 | inhibition at 10 µM [26]: < 50% | AUC [27]: 5025 ng·h/mL | Activity [28]: 0.3 pg | half-life [29]: 1.7 h | Activity [30]: 66 mm3 | Papp [31]: 18.4 10^-6 cm/s

Reference: ChEMBL document CHEMBL4665641, “Lead optimization and efficacy evaluation of quinazoline-based BET family inhibitors for potential treatment of cancer and inflammatory diseases” (Bioorg Med Chem Lett, 2019)
